Earlier results in patent US20220175799A1, “COMPOSITIONS HAVING THE ABILITY TO PROMOTE HEALTHY CHOLESTEROL LEVELS” (Brilliant Lab LLC, priority 2020, published 2022).
Like-named read-outs stand apart in the source and are kept apart here.

How the values were obtained:
[1] = not given; remark: listed apart in the source
[2] = not given; remark: listed apart in the source

Row | Compound | % LDL-C Reduction (statin dose 10 mg) [%] | % LDL-C Reduction (statin dose 20 mg) [%] | % LDL-C Reduction (statin dose 40 mg) [%] | % LDL-C Reduction (statin dose 80 mg) [%] | Reduction in LDL-C levels ([1]; statin daily oral dose 5 mg) [mg/dL] | Reduction in LDL-C levels ([1]; statin daily oral dose 10 mg) [mg/dL] | Reduction in LDL-C levels ([1]; statin daily oral dose 20 mg) [mg/dL] | Reduction in LDL-C levels ([1]; statin daily oral dose 40 mg) [mg/dL] | Reduction in LDL-C levels ([1]; statin daily oral dose 80 mg) [mg/dL] | % LDL-C Reduction (statin dose 1 mg) [%] | % LDL-C Reduction (statin dose 2 mg) [%] | % LDL-C Reduction (statin dose 4 mg) [%] | % LDL-C Reduction (statin dose 5 mg) [%] | reduction of LDL-cholesterol in subjects ([2]; 1 g daily) [%] | reduction of total cholesterol in subjects ([2]; 1 g daily) | reduction of LDL-cholesterol in subjects ([2]; 22 mg daily)
1 | CC(C)c1c(C(=O)Nc2ccccc2)c(-c2ccccc2)c(-c2ccc(F)cc2)n1CC[C@@H](O)C[C@@H](O)CC(=O)O [Atorvastatin] | 38 | 42 | 52 | 60 | 58.3917 | 69.2193 | 80.0469 | 91.2612 | 102.0888 |  |  |  |  |  |  | 
2 | CC(C)n1c(/C=C/C(O)CC(O)CC(=O)O)c(-c2ccc(F)cc2)c2ccccc21 (stereo not shown) [Fluvastatin] |  | 20 | 24 | 34 | 17.7882 | 28.6158 | 39.4434 | 50.271 | 61.0986 |  |  |  |  |  |  | 
3 | CC[C@H](C)C(=O)O[C@H]1C[C@@H](C)C=C2C=C[C@H](C)[C@H](CC[C@@H]3C[C@@H](O)CC(=O)O3)[C@H]21 [Lovastatin] | 20 | 26 | 30 | 38 |  | 39.4434 | 54.138 | 68.4459 | 83.1405 |  |  |  |  |  |  | 
4 | O=C(O)C[C@H](O)C[C@H](O)/C=C/c1c(C2CC2)nc2ccccc2c1-c1ccc(F)cc1 [Pitavastatin] |  |  |  |  |  |  |  |  |  | 30 | 32 | 42 |  |  |  | 
5 | CC(C)c1nc(N(C)S(C)(=O)=O)nc(-c2ccc(F)cc2)c1/C=C/[C@@H](O)C[C@@H](O)CC(=O)O [Rosuvastatin] | 52 | 56 | 63 |  | 71.1528 | 80.4336 | 89.7144 | 98.9952 | 108.276 |  |  |  | 44 |  |  | 
6 | COc1ccc2cc3[n+](cc2c1OC)CCc1cc2c(cc1-3)OCO2 [berberine] |  |  |  |  |  |  |  |  |  |  |  |  |  | ~16.4 | about 11.6% | 
7 | CC(C)=CCC/C(C)=C/C=C/C(C)=C/C=C/C(C)=C/C=C/C=C(C)/C=C/C=C(C)/C=C/C=C(\C)CCC=C(C)C [lycopene] |  |  |  |  |  |  |  |  |  |  |  |  |  |  |  | about 3.7 mg/dl
